Laboratory results published in article PMC8631675, “Neuroprotective effects of some epigenetic modifying drugs’ on Chlamydia pneumoniae-induced neuroinflammation: A novel model” (PLoS ONE, 2021).
Read-outs that look alike come from different tables or passages of the source.

How the values were obtained:
[1] = system: IL-1β gene expression; test: RT-PCR IL-1β gene expression in HMC3 microglia cells; type: cell-based, human; details: 24 h
Experimental: (§1) LPS and/or proinflammatory cytokines like IFN-ɣ, have been used alone or in combination in most in vitro neuroinflammation models to study microglial activation. Therefore, the effects of lyophilized cell free supernatant (CFS)+IFN-ɣ combination, which was determined to increase IL-1β and CD218a cytokine levels most effectively, on IL-1β, TNF-α and IL-8 gene expressions were compared with LPS+IFN-ɣ combination in order to determine the activation concentration.
(§2) RNA isolations were performed in MagNA Pure Compact System (Roche, Germany) using MagNA Pure Compact RNA Isolation Kit® (Catalog No: 04802993001, Roche, Germany) after 24-h. The total RNA amounts of the samples were measured at 260 and 280 nm in the NanoDrop 2000® (Thermo Fisher, USA) spectrophotometer. cDNA was obtained using the Transcriptor High Fidelity cDNA Synthesis Kit® (Catalog no: 05091284001, Roche, Germany) following the kit protocol from […] RNA of each sample. After the cDNA samples were replicated by PCR method, the expression levels were determined with the LightCycler® 480 Real-Time PCR System (Roche, Germany) using the IL-1β, TNF-α and IL-8 primers (PRZ BioTech, Turkey). Actin beta (ACTB) was used as a housekeeping gene. Primer sequences and RT-PCR cycling conditions are shown in S1 and S2 Tables. Results were analyzed according to the changes in the amplification levels compared to the control group with the analysis software of the instrument.

[2] = system: TNF-α gene expression; test: RT-PCR TNF-α gene expression in HMC3 microglia cells; type: cell-based, human; details: 24 h
Experimental: as §1, §2

[3] = system: IL-8 gene expression; test: RT-PCR IL-8 gene expression in HMC3 microglia cells; type: cell-based, human; details: 24 h
Experimental: as §1, §2

[4] = system: CD11b; test: Active microglia marker CD11b in HMC3 cells by flow cytometry; type: cell-based, human; details: 24 hours, control 10.1%
Experimental: HMC3 microglia cells were seeded in 12-well plates at a density of 75x10^3 cells per well and treated with treatment groups for 24 h. Then, cells were detached and centrifuged with Cell Staining Buffer (BioLegend, USA, Cat. No: 420201) for 5 minutes and the supernatant was discarded. Blocking was performed with 5 μl Human TruStain Fcx (BioLegend, USA, Cat. No: 422302) Fc receptor blocker solution diluted in 100 μl Cell Staining Buffer for 10 minutes at room temperature to reduce non-specific binding. The blocker was removed by centrifugation and the cells were stained with 5 μl PE anti-mouse/human CD11b Antibody (BioLegend, USA, Cat. No: 101208) diluted 1:5 in 20 μl Cell Staining Buffer for 15 minutes on ice in the dark. Then, the cells were washed 2 times with 2 ml Cell Staining Buffer and analyzed within 500 μl buffer using the BD Accuri ™ C6 flow cytometer.

[5] = system: SH-SY5Y cell; design: method as in PMID 31837307, PMID 32087283; details: LPS alone; cited from earlier work
[6] = system: HMC3 microglia cells; test: Cell proliferation (cytotoxicity) analysis with xCELLigence, HMC3; type: cell-based, human
Experimental: (§3) Cell proliferation analysis was performed with xCELLigence Real-Time Cell Analysis System to assess TSA, RG108, givinostat, and rifampin concentrations for use in both models. Differentiated SH-SY5Y and HMC3 microglia cells were seeded at a 5x10^3 density per well and incubated 24 h until CI values reached a log phase. The system stopped at the end of 24 h, 100, 10 and 1 μM TSA, givinostat, RG108 and rifampin were applied on current media and the cell viability was tracked. […] Simultaneously, slope plots were drawn using the CI values at 24 and 48 hours, and the statistical significance of the values discovered by assuming the average CI values of the control wells to be 100% was calculated.

[7] = system: differentiated SH-SY5Y cells; test: Cell proliferation (cytotoxicity) analysis with xCELLigence, SH-SY5Y; type: cell-based, human
Experimental: as §3

[8] = system: differentiated SH-SY5Y cells; test: Cell viability against Aβ-induced neurotoxicity, xCELLigence; type: cell-based, human; details: 24 h pretreatment (drugs 100 nM; CFS 1 μg/ml + IFN-γ; LPS 100 ng/ml + IFN-γ), then 5 μM Aβ (1–42) aggregates 24 h
Experimental: Pathological deterioration in AD is mainly associated with overproduction of the Aβ peptide and the Aβ (1–42) variant is the toxic form that is more predominant in Alzheimer’s patients. In this study, a modified oligomeric Aβ (1–42) neurotoxicity analysis protocol was applied in order to elucidate the effects of treatment groups on SH-SY5Y cell viability in the presence of Aβ [56]. In order to model Aβ-induced neurotoxicity in vitro, an oligomeric form of the Aβ1–42 peptide was prepared by diluting with ice-cold Ham’s F12 Nutrient Mixture medium dissolved in PBS containing 0.02 M NaOH at a final concentration of 50 μM and kept in a 37°C incubator for 7 days to form peptide aggregates prior to the experiments. 5x10^3 SH-SY5Y cells were differentiated inside the xCELLigence instrument for 5 days and treated with 100 nM TSA, RG108, givinostat, rifampin; 100 ng/ml LPS+IFN-ɣ or 1 μg/ml CFS+IFN-ɣ for 24 h in order to evaluate neuroprotection. The co-culture was performed in the same way as the neuroinflammation model. Neurotoxicity was obtained instead of neuroinflammation by diluting to 5 μM with fresh medium and adding Aβ1–42 aggregates to the wells for 24 h in 100 μl of medium. Cell viability data was then monitored for 24 h and analyzed within the instrument.

[9] = system: differentiated SH-SY5Y cells; test: Annexin V-PI staining of Aβ-induced cell death, flow cytometry; type: cell-based, human; details: pretreatment (drugs 100 nM; LPS 100 ng/ml + IFN-γ; CFS 1 μg/ml + IFN-γ) + 5 μM Aβ 24 h; for Necrotic effect (Q5-UL): control 1.6%; for Apoptotic effect (early apoptosis + late apoptosis): control 1.9%; for Percentage of living cells (Live): control 96.5%
Experimental: To determine neuronal apoptosis associated with Aβ exposure, 25x10^3 differentiated SH-SY5Y cells were seeded in 24-well plates and Aβ was applied. After 24 h, cells were trypsinized and staining was performed according to the CF 488A Annexin V and PI Apoptosis Kit (Biotium, USA, Cat. No: 30061) protocol. After washing the cells with 1xPBS, the working solution was prepared by diluting the PI with Annexin V binding buffer included in the kit. 5 μl Annexin V and 2 μl PI working solution were added to the centrifuge tubes and binded with 100 μl Annexin V binding buffer. After the samples were incubated for 30 minutes on ice and in the dark, 400 μl of Annexin V binding buffer was added to each tube and the samples were measured and analyzed in a BD Accuri™ C6 flow cytometry device.

[10] = system: SH-SY5Y cells; test: Total ROS/Superoxide detection; type: cell-based, human; details: for Increase of total amount of ROS compared to the control group, with NAC: 30 minutes NAC 5 mM, treated (drugs 100 nM; LPS 100 ng/ml; CFS 1 μg/ml, with IFN-γ) prior to Aβ exposure
Experimental: The Total ROS/Superoxide Detection Kit (ENZ-51010, Enzo) was used according to the kit process for evaluating the protective effects of the treatment groups on SH-SY5Y cells seeded at a 2x10^4 density per well in 96-well plates and Aβ was applied. ROS inhibitor N-acetyl cysteine (NAC) was applied at 5 mM concentration to negative control groups 30 minutes before the experiment and after incubation, 100 μL of “ROS/Superoxide Detection Solution” was added to the wells in the kit. The same procedure was done without the application of ROS inhibitor. Fluorometric analysis of stained cells was analyzed with Cytation 3 Cell Imaging Multi-Mode Reader (BioTek) using 490/525 nm and 550/620 nm filter sets.

[11] = system: mutated COS-7 cells; design: method as in PMID 27020329; details: mutated COS-7 cells expressing amyloid precursor protein; cited from earlier work
[12] = system: low density lipoprotein receptor-related protein 1 (LRP-1) and P-glycoprotein (P-gp); design: method as in PMID 22504320; details: by upregulating LRP-1 and P-gp; cited from earlier work
[13] = system: motor neurons; design: method as in PMID 23900692; details: inhibiting DNMT catalytic activity; cited from earlier work
[14] = HMC3, 10 ng/ml + 10 ng/ml IFN-ɣ
[15] = HMC3, 100 ng/ml + 10 ng/ml IFN-ɣ
[16] = cells treated (drugs 100 nM; LPS 100 ng/ml; CFS 1 μg/ml, with IFN-γ) before exposure to Aβ, without NAC

Compound	Reduction of HMC3 cell viability compared to the control group ([6]; 10 μM, 24 hours) [%]	Reduction of HMC3 cell viability compared to the control group ([6]; 10 μM, 48 hours) [%]	Reduction of HMC3 cell viability compared to the control group ([6]; 100 μM, 24 hours) [%]	Reduction of HMC3 cell viability compared to the control group ([6]; 100 μM, 48 hours) [%]	Reduction of differentiated SH-SY5Y cell viability ([7]; 1 μM, 24 hours) [%]	Reduction of differentiated SH-SY5Y cell viability ([7]; 1 μM, 48 hours) [%]	Reduction of differentiated SH-SY5Y cell viability ([7]; 10 μM, 24 hours) [%]	Reduction of differentiated SH-SY5Y cell viability ([7]; 10 μM, 48 hours) [%]	Reduction of differentiated SH-SY5Y cell viability ([7]; 100 μM, 24 hours) [%]	Reduction of differentiated SH-SY5Y cell viability ([7]; 100 μM, 48 hours) [%]	CI values compared to the control group [8] [%]	Necrotic effect (Q5-UL) [9] [%]	Apoptotic effect (early apoptosis + late apoptosis) [9] [%]	Percentage of living cells (Live) [9] [%]	Increase of total amount of ROS compared to the control group, with NAC [10] [%]	Decrease of total ROS amount according to the Aβ group [10, 16] [%]	also measured
lipopolysaccharide [LPS]																	IL-1β expression level compared to the control group [1, 14]: 1.64 fold; IL-1β expression level compared to the control group [1, 15]: 3.21 fold; IL-1β expression level compared to the control group ([1]; HMC3, 1 μg/ml + 10 ng/ml IFN-ɣ): 1.83 fold; TNF-α expression level compared to the control group [2, 14]: 1.55 fold; TNF-α expression level compared to the control group [2, 15]: 1.41 fold; TNF-α expression level compared to the control group ([2]; HMC3, 1 μg/ml + 10 ng/ml IFN-ɣ): 0.82 fold; IL-8 expression level compared to the control group [3, 14]: 3.07 fold; IL-8 expression level compared to the control group [3, 15]: 3.88 fold; IL-8 expression level compared to the control group ([3]; HMC3, 1 μg/ml + 10 ng/ml IFN-ɣ): 13.64 fold; CD11b antibody levels (positive gate V-R) [4, 15]: 42.4%; CD11b antibody levels (positive gate V-R) ([4]; HMC3, 1 μg/ml + 10 ng/ml IFN-ɣ): 23%; Effect on SH-SY5Y cell viability [5]: no effect
CO[C@H]1/C=C/O[C@@]2(C)Oc3c(C)c(O)c4c(O)c(c(/C=N/N5CCN(C)CC5)c(O)c4c3C2=O)NC(=O)/C(C)=C\C=C\[C@H](C)[C@H](O)[C@@H](C)[C@@H](O)[C@@H](C)[C@H](OC(C)=O)[C@@H]1C [Rifampin, rifampin]	12.72	17.79	15.74	28.72	30.28	17.16	46.98	25	97.24	98.61	120.7	8.1	5.8	86.2	0.25	43.14	IC50 ([6]; Homo sapiens, HMC3, 24 h, from CI values at 24th hour, 1, 10 and 100 μM tested, read-out: IC50 Values 24h HMC3): 33.2 µM; IC50 ([6]; Homo sapiens, HMC3, 48 h, from CI values at 48th hour, 1, 10 and 100 μM tested, read-out: IC50 Values 48h HMC3): 31 µM; IC50 ([7]; Homo sapiens, SH-SY5Y, 24 h, from CI values at 24th hour, 1, 10 and 100 μM tested, read-out: IC50 Values 24h SH-SY5Y): > 400 µM; IC50 ([7]; Homo sapiens, SH-SY5Y, 48 h, from CI values at 48th hour, 1, 10 and 100 μM tested, read-out: IC50 Values 48h SH-SY5Y): 64.4 µM; Increase of total amount of ROS compared to the control group ([10]; cells treated (drugs 100 nM; LPS 100 ng/ml; CFS 1 μg/ml, with IFN-γ) before exposure to Aβ, without NAC, not significant): 0.43%; Effect on Aβ, tau, and α-synuclein aggregation [11]: minimize Aβ, tau, and α-synuclein aggregation; Effect on Aβ clearance [12]: increasing Aβ clearance
O=C(O)C(Cc1c[nH]c2ccccc12)N1C(=O)c2ccccc2C1=O (stereo not drawn) [RG108]	3.12	8.33	43.26	57.56	21.98	15.47	43.73	33.89	64.03	53.43	120.7	6.6	4.3	89.1	4.29	52.61	IC50 ([6]; from CI values at 24th hour, 1, 10 and 100 μM tested, read-out: IC50 Values 24h HMC3): > 400 µM; IC50 ([6]; from CI values at 48th hour, 1, 10 and 100 μM tested, read-out: IC50 Values 48h HMC3): > 400 µM; IC50 ([7]; from CI values at 24th hour, 1, 10 and 100 μM tested, read-out: IC50 Values 24h SH-SY5Y): 1.49 µM; IC50 ([7]; from CI values at 48th hour, 1, 10 and 100 μM tested, read-out: IC50 Values 48h SH-SY5Y): 9.6 µM; Decrease of total amount of ROS compared to the control group ([10]; cells treated with compounds (100 nM) before exposure to Aβ, without NAC): 9.03%; Effect on motor neurons [13]: protect motor neurons from excessive DNA methylation and apoptosis
